Measured values: article PMC3481155, “AhR activation underlies the CYP1A autoinduction by A-998679 in rats” (Frontiers in Genetics, 2012)

Tests used:
rat Cyp 2A2 = target: T1, rat Cyp 2A2 (Rattus norvegicus, UniProt P15149); experiment: Recombinant rat Cyp phenotype profiling, 2A2; type: in vitro ADME; conditions: 60 min
T1 construct: purchased BD Gentest; host or cells: baculovirus infected insect cells
Procedure: Identification of the drug metabolizing enzymes (DMEs) of A-998679 was studied in cDNA expressed recombinant enzymes prepared from baculovirus infected insect cells over-expressing rat Cyp isoforms (BD Gentest, Woburn, MA) as listed in Table 2. Incubations were conducted in duplicate using Supersomes. The incubation mixture contained 100 pmol/ml of enzymes, except for Cyp1a1 (200 pmol/ml), 0.1 or 0.21 μM of [^3H]A-998679 in 100 mM phosphate buffer (pH 7.4). Reactions were initiated with the addition of NADPH at a final concentration of 1 mM and incubated at 37°C for 60 min. At the end of the incubation period, the incubations were terminated by the addition of acetonitrile/ethanol (50/50, v/v) solution. Insect control samples lacking expressed enzyme were used as negative control. The degree of metabolism of A-998679 was assessed by percent of parent remaining using the radio-HPLC method described below.
Radiolabeled components from the above assays were profiled following separation by HPLC with on line radioflow detector. The system consisted of an Agilent 1100 Series quaternary pump and autosampler connected to a Packard 500TR flow scintillation detector. The data were processed using the Radiomatic™ Flo-one® software v3.65. The scintillant (Perkin Elmer FLO-SCINT™ III) flow was maintained at 3 ml/min. […]

AhR gene battery = experiment: Rat liver mRNA profiling of the AhR gene battery; type: in vivo; conditions: 5 days
Procedure: All animal experiments were conducted in accordance with the Guiding Principles in the Use of Animals in Toxicology (http://www.toxicology.org/ai/air/air6.asp) and were approved by Abbott's Institutional Animal Care and Use Committee (IACUC). Male Sprague-Dawley rats [Crl:CD®(SD)IGS BR], weighing ~250 g at study initiation were obtained from Charles River Laboratories, Inc. (Wilmington, MA). Rats were housed singly in ventilated, stainless steel, wire-bottom hanging cages and fed non-certified Rodent Chow (Harlan Labs, Madison, WI), and water ad libitum and acclimated for at least 5 days after arrival. […] Serum clinical chemistry parameters were quantified using an Aeroset Clinical Chemistry Analyzer (Abbott Laboratories, Abbott Park, IL) and included alanine amino transferase (ALT), aspartate amino transferase (AST), gamma glutamyltransferase (GGT), and alkaline phosphatase (ALP) activities.
Frozen liver or jejunum were immediately added to 4 ml of TRIzol reagent (Invitrogen Life Technologies) and homogenized using a Polytron 300D homogenizer (Brinkman Instruments, Westbury, NY). […] Nucleic acid concentration was determined by OD 260 nm (Smart-Spec, Bio-Rad Laboratories, Hercules, CA), and RNA integrity was evaluated using an Agilent 2100 bioanalyzer (Agilent Technologies, Foster City, CA). […]

T1 sequence (P15149 whole entry): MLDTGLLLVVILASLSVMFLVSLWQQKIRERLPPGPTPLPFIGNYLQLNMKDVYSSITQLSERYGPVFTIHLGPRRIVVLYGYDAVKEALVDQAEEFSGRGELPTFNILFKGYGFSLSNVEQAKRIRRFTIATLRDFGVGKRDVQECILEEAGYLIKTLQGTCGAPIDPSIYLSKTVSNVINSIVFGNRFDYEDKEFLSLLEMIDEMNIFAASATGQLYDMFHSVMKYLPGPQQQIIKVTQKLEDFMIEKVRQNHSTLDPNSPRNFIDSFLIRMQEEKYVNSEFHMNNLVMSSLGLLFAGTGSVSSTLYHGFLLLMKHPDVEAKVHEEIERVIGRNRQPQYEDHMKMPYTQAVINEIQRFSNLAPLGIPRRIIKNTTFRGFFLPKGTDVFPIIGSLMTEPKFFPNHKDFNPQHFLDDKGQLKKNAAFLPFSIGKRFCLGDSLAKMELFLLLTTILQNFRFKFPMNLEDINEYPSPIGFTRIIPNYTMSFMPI

- % parent remaining (rat Cyp 2A2; recombinant rat Cyp 2A2, 0.10 μM): 90.2%
- % parent remaining (rat Cyp 2A2; recombinant rat Cyp 2A2, 0.21 μM): 77.8%
SMILES: N#Cc1cccc(-c2noc(-c3cccnc3)n2)c1 [A-998679, 3-(5-pyridin-3-yl-1,2,4-oxadiazol-3-yl) benzonitrile]
- expression of members of the AhR gene battery (Gst isoforms, Nqo1, Aldh, AhR) in rat liver (AhR gene battery): upregulated
